Our source for the IC50 values is patent US20240300944A1, “NOVEL UREA DERIVATIVE COMPOUND AS RON INHIBITOR” (LG CHEM, LTD., priority 2021, published 2024).

The structures appear in SMILES notation.

As a reminder, the IC50 is the midpoint of a concentration-inhibition curve. A lower IC50 goes with greater potency in that assay.

One assay deals with RON (Homo sapiens, UniProt Q04912). Nature of the assay: Inhibitory activity against RON, TR-FRET kinase assay. The class given is biochemical. Particulars: RON enzyme. As to the method:
In order to measure the inhibitory activity of each of the compounds of Examples against RON, the IC50 of each of the compounds was measured using a Time-Resolved Fluorescence Energy Transfer Chemistry (TR-FRET).
Specifically, the compound was prepared to a concentration of 1 mM with 100% DMSO and was diluted 10 times in a stepwise manner through 3-fold dilution. 2 ul of the compound diluted in a stepwise manner was added to a 96-well-plate containing 48 ul of a 1× kinase reaction buffer (50 mM HEPES (pH 7.4), 0.01% Tween-20, 5 mM DTT, 0.5 mM Na3VO4, 2 mM EGTA, 10 mM MgCl2).
The RON protein was diluted to a concentration of 49.3 nM with an RON storage buffer (50 mM Tris-HCl (pH 7.5), 150 mM NaCl, 0.5 mM EDTA, 0.02% Triton X-100), and then diluted again to a concentration of 0.4 nM with a 1× kinase reaction buffer. As a substrate cocktail, a RON-specific substrate mixture (40 uM ULight-labeled Poly GT, 100 nM ATP) at a concentration 2 times the final reaction concentration.
Thereafter, a 384-well-plate was prepared, and 2.5 ul of each of the diluted compounds of Examples was added to a corresponding well of experimental group wells, and 2.5 ul of a 4% DMSO solution was dispensed into high control wells and low control wells.
(§1) Thereafter, 2.5 μL of 0.4 nM RON was dispensed into the high control wells and the experimental group wells, and 2.5 μL of a 1× kinase reaction buffer was added to the low control wells, and the RON and the reaction buffer were centrifuged at room temperature for 40 seconds at 1000 RPM, and then incubated at room temperature for 20 to 30 minutes. Then, 5 μL of a substrate cocktail (2×) was dispensed into all wells, centrifuged at room temperature for 40 seconds at 1000 RPM, and then incubated at room temperature for 60 minutes. Thereafter, 5 μL of 30 mM EDTA was added to all wells to terminate the reaction, and then incubated again at room temperature for 5 minutes. Thereafter, 5 μL of a 4× phosphotyrosine antibody (Perkin Elmer) containing europium was added to all wells, and then incubated at room temperature for 60 minutes. After the incubation, the 384-well-plate was read with a Vison plate reader. At this time, the excitation wavelength was 340 nm, and the emission wavelength was 620 nm and 665 nm. The IC50 value of the compound of each Example was derived using the GraphPd Prism7 program.
For orientation: Time-resolved FRET reads energy transfer from a long-lived donor to a nearby acceptor.

Another assay deals with cMET (Homo sapiens, UniProt P08581). Nature of the assay: Inhibitory activity against MET (cMET), TR-FRET kinase assay. The class given is biochemical. The following applies: cMET enzyme. The procedure:
In addition, in order to measure the enzyme activity inhibition for cMET, the evaluation was performed in the same manner as the enzyme activity inhibition measurement experiment for the RON.
Specifically, the compound was prepared to a concentration of 1 mM with 100% DMSO and was diluted 10 times in a stepwise manner through 3-fold dilution. 2 ul of the compound diluted in a stepwise manner was added to a 96-well-plate containing 48 ul of a 1× kinase reaction buffer (50 mM HEPES (pH 7.4), 0.05% BSA, 0.005% Tween-20, 1 mM DTT, 0.5 mM MnCl2, 20 mM MgCl2).
The cMET protein was diluted to a concentration of 263 nM with a cMET storage buffer (50 mM Tris-HCl (pH 7.5), 150 mM NaCl, 0.05% Brij35, 1 mM DTT, 10% Glycerol), and then diluted again to a concentration of 2 nM with a 1× kinase reaction buffer. As a substrate cocktail, a MET-specific substrate mixture (5 uM TK peptide, […]) at a concentration 2 times the final reaction concentration.
Thereafter, a 384-well-plate was prepared, and 2.5 μl of each of the diluted compounds of Examples was added to a corresponding well of experimental group wells, and 2.5 μl of a 4% DMSO solution was dispensed into high control wells and low control wells.
as §1, with “of 2” for “of 0.4”, “nM cMET” for “nM RON”, “of 90” for “of 30”

Chain of cMET (P08581 25-1390): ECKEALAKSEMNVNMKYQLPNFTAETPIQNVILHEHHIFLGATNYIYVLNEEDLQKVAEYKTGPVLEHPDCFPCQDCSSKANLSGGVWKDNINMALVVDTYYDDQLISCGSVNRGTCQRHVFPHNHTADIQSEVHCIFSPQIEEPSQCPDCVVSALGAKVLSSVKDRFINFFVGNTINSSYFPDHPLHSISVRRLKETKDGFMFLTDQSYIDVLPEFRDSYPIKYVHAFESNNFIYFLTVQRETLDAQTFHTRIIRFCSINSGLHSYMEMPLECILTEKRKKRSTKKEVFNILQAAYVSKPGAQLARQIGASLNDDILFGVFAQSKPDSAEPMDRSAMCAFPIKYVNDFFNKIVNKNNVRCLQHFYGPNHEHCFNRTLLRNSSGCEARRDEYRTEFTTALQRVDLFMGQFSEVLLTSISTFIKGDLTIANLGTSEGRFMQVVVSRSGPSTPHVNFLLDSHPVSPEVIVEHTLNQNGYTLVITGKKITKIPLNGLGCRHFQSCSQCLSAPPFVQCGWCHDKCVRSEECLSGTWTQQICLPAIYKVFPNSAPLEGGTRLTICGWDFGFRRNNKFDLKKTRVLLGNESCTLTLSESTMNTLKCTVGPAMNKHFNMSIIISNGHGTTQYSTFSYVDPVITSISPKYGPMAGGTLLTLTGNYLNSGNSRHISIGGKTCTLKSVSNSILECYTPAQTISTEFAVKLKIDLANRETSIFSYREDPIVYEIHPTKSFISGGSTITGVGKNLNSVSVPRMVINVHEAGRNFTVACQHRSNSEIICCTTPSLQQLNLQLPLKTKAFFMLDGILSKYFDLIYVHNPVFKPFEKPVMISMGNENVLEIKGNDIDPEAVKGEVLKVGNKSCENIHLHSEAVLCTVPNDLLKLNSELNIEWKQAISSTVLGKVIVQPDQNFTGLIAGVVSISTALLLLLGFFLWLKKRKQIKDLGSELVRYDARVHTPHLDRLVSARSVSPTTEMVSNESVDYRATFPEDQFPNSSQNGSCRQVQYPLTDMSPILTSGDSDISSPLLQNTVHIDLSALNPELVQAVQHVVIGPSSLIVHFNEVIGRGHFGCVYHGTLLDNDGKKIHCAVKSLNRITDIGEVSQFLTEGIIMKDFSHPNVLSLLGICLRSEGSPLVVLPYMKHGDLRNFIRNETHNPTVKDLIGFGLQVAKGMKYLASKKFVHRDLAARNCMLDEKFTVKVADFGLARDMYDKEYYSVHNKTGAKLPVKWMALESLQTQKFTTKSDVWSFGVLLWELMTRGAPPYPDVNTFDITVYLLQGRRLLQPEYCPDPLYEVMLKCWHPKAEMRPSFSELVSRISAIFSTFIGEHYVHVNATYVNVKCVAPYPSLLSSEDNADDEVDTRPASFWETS
Chain of RON (Q04912 25-1400, species assumed): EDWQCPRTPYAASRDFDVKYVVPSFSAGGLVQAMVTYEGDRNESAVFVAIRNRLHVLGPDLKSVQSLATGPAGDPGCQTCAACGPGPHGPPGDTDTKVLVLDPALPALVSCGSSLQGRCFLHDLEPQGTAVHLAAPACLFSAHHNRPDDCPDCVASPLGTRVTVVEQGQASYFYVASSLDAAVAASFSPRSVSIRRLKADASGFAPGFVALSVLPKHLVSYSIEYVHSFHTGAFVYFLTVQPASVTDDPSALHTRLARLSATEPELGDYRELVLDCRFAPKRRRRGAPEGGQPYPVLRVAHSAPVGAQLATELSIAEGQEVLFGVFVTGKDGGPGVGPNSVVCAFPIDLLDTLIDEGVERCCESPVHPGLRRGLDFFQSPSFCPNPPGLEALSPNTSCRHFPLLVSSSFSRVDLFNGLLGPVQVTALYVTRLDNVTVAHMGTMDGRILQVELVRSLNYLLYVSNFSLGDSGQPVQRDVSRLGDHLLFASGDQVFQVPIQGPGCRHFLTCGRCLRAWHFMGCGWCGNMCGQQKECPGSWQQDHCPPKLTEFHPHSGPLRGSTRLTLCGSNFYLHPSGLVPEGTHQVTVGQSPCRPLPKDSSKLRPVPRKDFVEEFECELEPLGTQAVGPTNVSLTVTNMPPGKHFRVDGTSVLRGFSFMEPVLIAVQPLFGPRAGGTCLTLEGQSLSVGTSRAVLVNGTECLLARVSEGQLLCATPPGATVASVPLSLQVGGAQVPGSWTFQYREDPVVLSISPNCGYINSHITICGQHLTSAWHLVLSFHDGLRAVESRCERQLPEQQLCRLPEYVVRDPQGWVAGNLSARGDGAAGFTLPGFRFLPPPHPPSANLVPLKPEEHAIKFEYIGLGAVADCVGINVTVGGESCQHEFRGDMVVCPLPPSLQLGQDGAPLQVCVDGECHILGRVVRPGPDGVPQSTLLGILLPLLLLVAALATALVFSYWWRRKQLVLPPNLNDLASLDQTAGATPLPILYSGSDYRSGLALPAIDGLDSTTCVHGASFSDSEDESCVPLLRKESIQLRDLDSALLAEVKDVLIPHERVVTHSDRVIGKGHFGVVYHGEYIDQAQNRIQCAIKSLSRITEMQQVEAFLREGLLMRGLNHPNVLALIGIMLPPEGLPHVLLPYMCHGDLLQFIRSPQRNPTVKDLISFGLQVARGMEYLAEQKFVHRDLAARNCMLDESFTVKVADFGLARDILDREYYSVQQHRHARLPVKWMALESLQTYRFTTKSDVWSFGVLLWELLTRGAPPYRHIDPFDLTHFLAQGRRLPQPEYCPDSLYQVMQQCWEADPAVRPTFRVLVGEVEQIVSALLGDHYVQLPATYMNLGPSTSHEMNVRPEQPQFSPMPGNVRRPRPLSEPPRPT

With `CC(C)n1c(=O)[nH]c2nccc(Oc3ccc(NC(=O)c4cnn(-c5ccccc5F)c4C(F)(F)F)cc3F)c21` [Example 34, N-(3-fluoro-4-((1-isopropyl-2-oxo-2,3-dihydro-1H-imidazo[4,5-b]pyridine-7-yl)oxy)phenyl)-1-(2-fluorophenyl)-5-(trifluoromethyl)-1H-pyrazole-4-carboxamide], the IC50 is under 50 nM at RON and 500 to 5000 nM against cMET.

For `CC(C)n1c(=O)[nH]c2nccc(Oc3ccc(NC(=O)c4cnn(-c5ccccc5Cl)c4C(F)(F)F)cc3F)c21` [Example 35, 1-(2chlorophenyl)-N-(3-fluoro-4-((1-isopropyl-2-oxo-2,3-dihydro-1H-imidazo[4,5-b]pyridine-7-yl)oxy)phenyl)-5-(trifluoromethyl)-1H-pyrazole-4-carboxamide], the IC50 against RON is under 50 nM; on cMET, 500 to 5000 nM.

As for `CC(C)n1c(=O)[nH]c2nccc(Oc3ccc(NC(=O)c4cnn(-c5c(F)cccc5F)c4C(F)(F)F)cc3F)c21` [Example 36, 1-(2,6-difluorophenyl)-N-(3-fluoro-4-((1-isopropyl-2-oxo-2,3-dihydro-1H-imidazo[4,5-b]pyridine-7-yl)oxy)phenyl)-5-(trifluoromethyl)-1H-pyrazole-4-carboxamide], the values for the concentration for half-maximal inhibition (IC50) against RON and against cMET were under 50 nM and 500 to 5000 nM, respectively.

Regarding `O=C(Nc1ccc(Oc2ccnc3[nH]c(=O)n(C4CCOCC4)c23)c(F)c1)c1cnn(-c2ccccc2)c1C(F)(F)F` [Example 37, N-(3-fluoro-4-((2-oxo-1-(tetrahydro-2H-pyran-4-yl)-2,3-dihydro-1H-imidazo[4,5-b]pyridine-7-yl)oxy)phenyl)-1-phenyl-5-(trifluoromethyl)-1H-pyrazole-4-carboxamide], the IC50 against RON is 50 to 500 nM; at cMET it was 500 to 5000 nM.

For `O=C(Nc1ccc(Oc2ccnc3[nH]c(=O)n(C4CCOC4)c23)c(F)c1)c1cnn(-c2ccccc2)c1C(F)(F)F` (stereo not drawn) [Example 38, N-(3-fluoro-4-((2-oxo-1-(tetrahydrofuran-3-yl)-2,3-dihydro-1H-imidazo[4,5-b]pyridine-7-yl)oxy)phenyl)-1-phenyl-5-(trifluoromethyl)-1H-pyrazole-4-carboxamide], the IC50 is under 50 nM against RON and 500 to 5000 nM at cMET.

For `CN1CCC(n2c(=O)[nH]c3nccc(Oc4ccc(NC(=O)c5cnn(-c6ccccc6)c5C(F)(F)F)cc4F)c32)CC1` [Example 39, N-(3-fluoro-4-((1-(1-methylpiperidine-4-yl)-2-oxo-2,3-dihydro-1H-imidazo[4,5-b]pyridine-7-yl)oxy)phenyl)-1-phenyl-5-(trifluoromethyl)-1H-pyrazole-4-carboxamide], the half-inhibitory concentration (IC50) was under 50 nM against RON and over 5000 nM on cMET.

Regarding `CC(C)n1c(=O)[nH]c2nccc(Oc3ccc(NC(=O)c4ccn(-c5ccccc5)n4)cc3F)c21` [Example 40, N-(3-fluoro-4-((1-isopropyl-2-oxo-2,3-dihydro-1H-imidazo[4,5-b]pyridine-7-yl)oxy)phenyl)-1-phenyl-1H-pyrazole-3-carboxamide], the IC50 against RON and against cMET was 500 to 5000 nM each time.

Regarding `CC(C)n1c(=O)[nH]c2nccc(Oc3ccc(NC(=O)c4cn(-c5ccccc5)nn4)cc3F)c21` [Example 41, N-(3-fluoro-4-((1-isopropyl-2-oxo-2,3-dihydro-1H-imidazo[4,5-b]pyridine-7-yl)oxy)phenyl)-1-phenyl-1H-1,2,3-triazole-4-carboxamide], the half-maximal inhibitory concentration (IC50) against RON was 500 to 5000 nM; against cMET, over 5000 nM.

As for `Cc1c(C(=O)Nc2ccc(Oc3ccnc4[nH]c(=O)n(C(C)C)c34)c(F)c2)nnn1-c1ccccc1` [Example 42, N-(3-fluoro-4-((1-isopropyl-2-oxo-2,3-dihydro-1H-imidazo[4,5-b]pyridine-7-yl)oxy)phenyl)-5-methyl-1-phenyl-1H-1,2,3-triazole-4-carboxamide], the IC50 on RON is 50 to 500 nM; against cMET, over 5000 nM.
